“And” between values parts separate entries of the source, which are not always exact repeats. Equal entries are not always repeated. Toxic doses and inconclusive results are not listed. Rule as the data show it: active = T/C of 150% or more; inactive = T/C below 125%.
Tested on: L1210 leukemia ip in BDF1 mice, survival T/C
Test: NCI In Vivo Anticancer Drug Screen. Data for tumor model L1210 Leukemia (intraperitoneal) in B6D2F1 (BDF1) mice
Conditions: endpoint: mean survival time, higher = longer survival
In short: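 Mice bearing the transplanted tumor received compound or vehicle. Survival of the treated group was divided by that of the vehicle-treated control group to give the ratio.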

[1] = dose: 100.0 mg/kg/injection, schedule: Q04DX003 (ip), vehicle: saline
[2] = dose: 100.0 mg/kg/injection, schedule: Q01DX009 (ip), vehicle: saline with Tween-80
[3] = dose: 100.0 mg/kg/injection, schedule: Q04DX003 (ip), vehicle: saline with Tween-80
[4] = dose: 200.0 mg/kg/injection, schedule: Q01DX009 (ip), vehicle: saline with Tween-80
[5] = dose: 200.0 mg/kg/injection, schedule: Q04DX003 (ip), vehicle: saline with Tween-80
[6] = dose: 400.0 mg/kg/injection, schedule: Q01DX009 (ip), vehicle: saline with Tween-80
[7] = dose: 400.0 mg/kg/injection, schedule: Q04DX003 (ip), vehicle: saline with Tween-80
[8] = dose: 100.0 mg/kg/injection, schedule: Q04DX002 (ip), vehicle: saline with Tween-80
[9] = dose: 200.0 mg/kg/injection, schedule: Q04DX002 (ip), vehicle: saline with Tween-80
[10] = dose: 400.0 mg/kg/injection, schedule: Q04DX002 (ip), vehicle: saline with Tween-80
[11] = dose: 100.0 mg/kg/injection, schedule: Q04DX002 (ip), vehicle: saline
[12] = dose: 200.0 mg/kg/injection, schedule: Q04DX002 (ip), vehicle: saline
[13] = dose: 400.0 mg/kg/injection, schedule: Q04DX002 (ip), vehicle: saline

Measured: T/C

CCCCCCCCCC(=O)OCC1OC(=O)C(C)N(C)C(=O)CN(C)C(=O)C2C(=O)CC(C)N2C(=O)C(C(C)C)NC(=O)C1NC(=O)c1c2nc3c(C(=O)NC4C(=O)NC(C(C)C)C(=O)N5C(C)CC(OC(=O)CCCCCCCCC)C5C(=O)N(C)CC(=O)N(C)C(C(C)C)C(=O)OC4C)ccc(C)c3oc-2c(C)c(=O)c1N (centres undefined)
inactive: dose: 0.2 mg/kg/injection, schedule: Q01DX009 (ip), vehicle: Klucel (hydroxypropylcellulose) (HPC) 92 % of control | dose: 0.4 mg/kg/injection, schedule: Q01DX009 (ip), vehicle: Klucel (hydroxypropylcellulose) (HPC) 94 % of control | dose: 0.6 mg/kg/injection, schedule: Q04DX003 (ip), vehicle: Klucel (hydroxypropylcellulose) (HPC) 97 % of control | dose: 0.8 mg/kg/injection, schedule: Q01DX009 (ip), vehicle: Klucel (hydroxypropylcellulose) (HPC) 96 % of control | dose: 1.2 mg/kg/injection, schedule: Q04DX003 (ip), vehicle: Klucel (hydroxypropylcellulose) (HPC) 95 % of control | dose: 1.6 mg/kg/injection, schedule: Q01DX001 (ip), vehicle: Klucel (hydroxypropylcellulose) (HPC) 92 % of control | dose: 1.6 mg/kg/injection, schedule: Q01DX009 (ip), vehicle: Klucel (hydroxypropylcellulose) (HPC) 92 % of control | dose: 2.4 mg/kg/injection, schedule: Q04DX003 (ip), vehicle: Klucel (hydroxypropylcellulose) (HPC) 90 % of control | dose: 3.2 mg/kg/injection, schedule: Q01DX001 (ip), vehicle: Klucel (hydroxypropylcellulose) (HPC) 92 % of control | dose: 3.2 mg/kg/injection, schedule: Q01DX009 (ip), vehicle: Klucel (hydroxypropylcellulose) (HPC) 89 % of control | dose: 4.8 mg/kg/injection, schedule: Q04DX003 (ip), vehicle: Klucel (hydroxypropylcellulose) (HPC) 91 % of control | dose: 6.4 mg/kg/injection, schedule: Q01DX001 (ip), vehicle: Klucel (hydroxypropylcellulose) (HPC) 91 % of control | dose: 9.6 mg/kg/injection, schedule: Q04DX003 (ip), vehicle: Klucel (hydroxypropylcellulose) (HPC) 87 % of control | dose: 12.8 mg/kg/injection, schedule: Q01DX001 (ip), vehicle: Klucel (hydroxypropylcellulose) (HPC) 89 % of control

CSc1ncc2cnccn12
inactive: dose: 25.0 mg/kg/injection, schedule: Q01DX009 (ip), vehicle: water 95 % of control | dose: 25.0 mg/kg/injection, schedule: Q04DX003 (ip), vehicle: saline 106 % of control | dose: 50.0 mg/kg/injection, schedule: Q01DX009 (ip), vehicle: water 102 % of control | dose: 50.0 mg/kg/injection, schedule: Q04DX003 (ip), vehicle: saline 101 % of control | dose: 100.0 mg/kg/injection, schedule: Q01DX009 (ip), vehicle: water 102 % of control | [1] 101 % of control | dose: 100.0 mg/kg/injection, schedule: Q04DX003 (ip), vehicle: water 93 % of control

N/C(=N/N=C/c1ccccc1O)N/N=C\c1ccccc1O
inactive: dose: 15.0 mg/kg/injection, schedule: Q01DX Z (ip), vehicle: carboxymethylcellulose (CMC) 93 % of control | dose: 30.0 mg/kg/injection, schedule: Q01DX Z (ip), vehicle: carboxymethylcellulose (CMC) 92 % of control | dose: 60.0 mg/kg/injection, schedule: Q01DX Z (ip), vehicle: carboxymethylcellulose (CMC) 97 % of control and 89 % of control | dose: 120.0 mg/kg/injection, schedule: Q01DX Z (ip), vehicle: carboxymethylcellulose (CMC) 92 % of control and 100 % of control | dose: 240.0 mg/kg/injection, schedule: Q01DX Z (ip), vehicle: carboxymethylcellulose (CMC) 100 % of control | dose: 240.0 mg/kg/injection, schedule: Q01DX Z (oral), vehicle: carboxymethylcellulose (CMC) 105 % of control | dose: 480.0 mg/kg/injection, schedule: Q01DX Z (ip), vehicle: carboxymethylcellulose (CMC) 94 % of control | dose: 480.0 mg/kg/injection, schedule: Q01DX Z (oral), vehicle: carboxymethylcellulose (CMC) 105 % of control | dose: 960.0 mg/kg/injection, schedule: Q01DX Z (oral), vehicle: carboxymethylcellulose (CMC) 105 % of control | dose: 1920.0 mg/kg/injection, schedule: Q01DX Z (oral), vehicle: carboxymethylcellulose (CMC) 113 % of control

Nc1cc(SC(c2ccccc2)c2ccccc2)c(N)c(N)n1
inactive: dose: 75.0 mg/kg/injection, schedule: Q01DX001 (ip), vehicle: DMSO 96 % of control | dose: 150.0 mg/kg/injection, schedule: Q01DX001 (ip), vehicle: DMSO 88 % of control

O=C(O)CNC(=O)c1ccc([N+](=O)[O-])cc1
inactive: [2] 92 % of control | [3] 103 % of control | [4] 92 % of control | [5] 98 % of control | [6] 92 % of control | [7] 98 % of control

O=C(O)CCc1ccc(-c2cccc([N+](=O)[O-])c2)o1
inactive: [8] 102 % of control | [9] 105 % of control | [10] 98 % of control

C[CH2][Ge]1([CH2]C)[CH2]CC2(C[CH2]1)NC(=O)N(CCCN(C)C)C2O (centres undefined)
inactive: [11] 96 % of control | [12] 100 % of control | [13] 88 % of control

CCNC(C)CC(C)C (centres undefined)
inactive: dose: 25.0 mg/kg/injection, schedule: Q01DX009 (ip), vehicle: saline with Tween-80 101 % of control | dose: 25.0 mg/kg/injection, schedule: Q04DX003 (ip), vehicle: saline with Tween-80 95 % of control | dose: 50.0 mg/kg/injection, schedule: Q01DX009 (ip), vehicle: saline with Tween-80 92 % of control | dose: 50.0 mg/kg/injection, schedule: Q04DX003 (ip), vehicle: saline with Tween-80 92 % of control | [2] 98 % of control | [3] 93 % of control and 96 % of control

Cc1c(Cl)cccc1NC(=O)Nc1cccc(C(F)(F)F)c1
inactive: dose: 100.0 mg/kg/injection, schedule: Q01DX001 (ip), vehicle: saline with Tween-80 87 % of control and 88 % of control | [2] 94 % of control and 104 % of control | [8] 93 % of control and 90 % of control | [3] 94 % of control | dose: 200.0 mg/kg/injection, schedule: Q01DX001 (ip), vehicle: saline with Tween-80 91 % of control | [4] 93 % of control and 97 % of control | [9] 88 % of control and 89 % of control | [5] 97 % of control | dose: 400.0 mg/kg/injection, schedule: Q01DX001 (ip), vehicle: saline with Tween-80 94 % of control and 89 % of control | [6] 100 % of control and 104 % of control | [10] 100 % of control and 90 % of control | [7] 96 % of control

CCN(CC)Cc1ccccc1COC(=O)/C=C/c1ccccc1
inactive: [11] 108 % of control | [12] 86 % of control | [13] 108 % of control

Cc1ccc(-n2c(O)c(N=Nc3ccc(Br)cc3)c(=O)n(-c3ccccc3)c2=S)cc1
inactive: dose: 50.0 mg/kg/injection, schedule: Q01DX001 (ip), vehicle: Klucel (hydroxypropylcellulose) (HPC) 97 % of control | dose: 100.0 mg/kg/injection, schedule: Q01DX001 (ip), vehicle: Klucel (hydroxypropylcellulose) (HPC) 111 % of control | dose: 200.0 mg/kg/injection, schedule: Q01DX001 (ip), vehicle: Klucel (hydroxypropylcellulose) (HPC) 94 % of control

CCC(C)C(CN)(CCCN1CCCCC1)c1cccc2ccccc12 (centres undefined)
inactive: [1] 97 % of control | dose: 200.0 mg/kg/injection, schedule: Q04DX003 (ip), vehicle: saline 95 % of control

CSc1ccc(OC(=O)Nc2ccc(Cl)cc2Cl)cc1C
inactive: dose: 100.0 mg/kg/injection, schedule: Q01DX009 (ip), vehicle: Klucel (hydroxypropylcellulose) (HPC) 95 % of control | dose: 200.0 mg/kg/injection, schedule: Q01DX009 (ip), vehicle: Klucel (hydroxypropylcellulose) (HPC) 98 % of control | dose: 400.0 mg/kg/injection, schedule: Q01DX009 (ip), vehicle: Klucel (hydroxypropylcellulose) (HPC) 95 % of control

Source: PubChem BioAssay AID248 (DTP/NCI, 2004)
